Test results as given in US20160115540A1, “PRODRUGS AND DRUGS” (Biogen MA Inc., priority 2013, published 2016).
Structures can show the parent of a compound that is named as a salt.

Test system: blood and tissues
Experiment: Transcriptional profiling, acute (single) dosing, EAE mice: blood and tissues
Format: in vivo
Source text: EAE induction is generally performed by immunization with brain extracts, CNS proteins (such as myelin basic protein), or peptides from such protein emulsified in an adjuvant such as complete Freund's adjuvant, e.g., as described in Linker et al., Brain. 2011 March 134(Pt3): 678-92. […] FIG. 17 depicts exemplary immunophenotyping panels used to analyze various immune cell populations (e.g., T cells, T regulatory cells, NK cells, B cells, myeloid cells). […] The number of independent mice whose tissues were harvested for transcript profiling studies and whose data passed QC is shown in TABLE 15. Animals were exposed to CO2 and whole blood collected via cardiac puncture. Two 100 μl aliquots of whole blood were collected in 1.5 mL microcentrifuge tubes and snap frozen in liquid nitrogen. Peripheral (liver, spleen, kidney and jejunum) and CNS brain (cerebellum, hippocampus, striatum and cortex) tissues were harvested and snap frozen in liquid nitrogen, with special care taken to collect tissues of similar size and from the same location. All samples were stored at -80° C. until RNA extraction was conducted. For RNA preparation, frozen tissues were placed in 2 mL RNAse-free 96-well blocks with 1.5 mL QIAzol Lysis Reagent (QIAgen) and a 3.2 mm stainless steel bead (BioSpec Products, Bartlesville, Okla.). Tissues were disrupted for four cycles of 45 seconds in a Mini-Beadbeater (Biospec Products). RNA was extracted in chloroform and the aqueous phase was mixed with an equal volume of 70% ethanol. Extracted RNA was applied to RNeasy 96 plates and purified by the spin method according to the manufacturer's protocol (RNeasy 96 Universal Tissue Protocol, QIAgen, Hilden Germany). 50 ul of snap frozen mouse blood was re-suspended in lysis buffer with proteinase K and arrayed into deep-well plates for automated RNA extraction. RNA extractions were completed on […] (Beckman Coulter, Indianapolis, Ind.) using Agencourt RNAdvance Blood kit (Part number A35604) according to the manufacturer's specifications. RNA integrity was assessed using the HT RNA reagent kit (Part number 760410, Caliper Life Sciences, Hopkinton, Mass.) using a LabChip GX (PerkinElmer, Waltham, Mass.). RNA samples with a RQS score of >8.0 were considered high quality for downstream microarray processing. […] Washing and staining of the hybridized arrays were completed as described in the GeneChip Expression analysis technical manual for HT plate arrays using the Genechip® Array Station (Affymetrix, Santa Clara, Calif.) with modifications as described in […] et al. The processed GeneChip® plate arrays were scanned using GeneTitan scanner (Affymetrix, Santa Clara, Calif.). Affymetrix scans were subject to quality control (QC) measures. These tests included a visual inspection of the distribution of raw signal intensities and an assessment of RNA degradation, relative log expression (RLE), and normalized unscaled standard error (NUSE). All sample scans that passed these QC metrics were included in the analysis. […] Nucleic Acids Res 2003; 31:e15; Li C, et al. Genome Biol 2001; 2:[…]0032). […] Stat Appl Genet Mol Biol 2004; 3:Article3). […] Springer Science+Business Media 2005). […] Generally, no distinct sample groupings were apparent from this analysis; however, in the following cohorts, differences in EAE severity across the mice were manifest in global gene expression patterns: An example of this animal grouping is shown in FIG. 33 for the spinal cord from the chronically-dosed 7 h EAE mice. […] Three distinct groups of mice result from unsupervised clustering, and these animal groups correlate with the cumulative EAE score. […] Subsequent analyses for the cohorts listed above only included those animals with the most severe EAE scores; however, for the cohorts 'Spinal Cord, Acute Dosing, 7 h' and 'Spleen, Acute Dosing, 12 h,' there were an insufficient number of mice in the different treatment groups to perform such a sub-analysis. […]

[1] = EAE, Acute Dosing, 90 mpk MMF-vs-Vehicle, 7 h after last dosing
[2] = EAE, Acute Dosing, 90 mpk MMF-vs-Vehicle, 12 h after last dosing
[3] = lymph node, 100MMF-vs-Veh, 12 h
[4] = whole blood, 100MMF-vs-Veh, 7 h
[5] = whole blood, 100MMF-vs-Veh, 12 h

## COC(=O)/C=C/C(=O)O [MMF, monomethyl fumarate]
[1]
  Number of differentially expressed genes identified: Brain: 0
  Number of differentially expressed genes identified: Cerebellum: 1
  Number of differentially expressed genes identified: Lymph Node: 6
  Number of differentially expressed genes identified: Spleen: 114
  Number of differentially expressed genes identified: Whole blood: 6
[2]
  Number of differentially expressed genes identified: Brain: 0
  Number of differentially expressed genes identified: Cerebellum: 1
  Number of differentially expressed genes identified: Lymph Node: 4
  Number of differentially expressed genes identified: Spinal Cord: 1
  Number of differentially expressed genes identified: Whole blood: 7
cerebellum, 100MMF-vs-Veh, 12 h
  FC 5830436I19Rik 1437136_PM_at: 1.87
cerebellum, 100MMF-vs-Veh, 7 h
  FC 1446570_PM_at: 1.51
Lymph node, 100MMF-vs-Veh, 7 h
  FC Aox1 (1419435_PM_at): 2.17
  FC F3 1417408_PM_at: 1.57
  FC Gclm 1439050_PM_at: 1.50
  FC Nqo1 (1423627_PM_at): 1.98
  FC Srxn1 (1419942_PM_at): 1.65
  FC Srxn1 (1426875_PM_s_at): 1.61
[3]
  FC 1446567_PM_at: 1.74
  FC 1457549_PM_at: 1.67
  FC 4930453J04Rik 1454406_PM_at: 1.76
  FC 5830436I19Rik 1437136_PM_at: 1.65
Spinal cord, 100MMF-vs-Veh, 12 h
  FC 1445562_PM_at: 2.11
spleen, 100MMF-vs-Veh, 7 h
  FC 1190002H23Rik 1438511_PM_a_at: 1.60
  FC 1438259_PM_at: 1.56
  FC 1443364_PM_at: 1.88
  FC 1443911_PM_at: 1.54
  FC 1444212_PM_at: 1.54
  FC 1446234_PM_at: 1.50
  FC 1447706_PM_at: 1.57
  FC 1451626_PM_x_at: 1.60
  FC 1452426_PM_x_at: 1.58
  FC 1458296_PM_at: 1.79
  FC 1458586_PM_at: 1.50
  FC 2410129H14Rik 1434664_PM_at: 1.74
  FC 2410129H14Rik 1455052_PM_a_at: 1.56
  FC 2610021A01Rik 1438786_PM_a_at: 1.55
  FC 4732418C07Rik 1446425_PM_at: 1.53
  FC 5730508B09Rik 1447100_PM_s_at: 1.91
  FC AI662270 1434067_PM_at: 1.52
  FC Abi1 1438506_PM_s_at: 1.61
  FC Aco1 (1456728_PM_x_at): 1.69
  FC Acp1 1422716_PM_a_at: 1.80
  FC Adk 1438292_PM_x_at: 1.54
  FC Ampd3 1422573_PM_at: 1.61
  FC Apol9a /// Apol9b 1424518_PM_at: 1.57
  FC Arhgap21 1428369_PM_s_at: 1.57
  FC Arl4a 1435092_PM_at: 2.26
  FC Arl6ip6 1424020_PM_at: 1.52
  FC B3galnt2 1454842_PM_a_at: 1.51
  FC Birc6 1442959_PM_at: 1.54
  FC C79407 1434767_PM_at: 1.95
  FC C1d 1416886_PM_at: 1.52
  FC C330027C09Rik 1449699_PM_s_at: 1.59
  FC Cat 1416429_PM_a_at: 1.51
  FC Ccl6 (1420249_PM_s_at): 1.57
  FC Cdyl 1418070_PM_at: 1.73
  FC Cenpa 1441864_PM_x_at: 1.86
  FC Chic2 1429050_PM_at: 1.67
  FC Cno 1459783_PM_s_at: 1.58
  FC Cpt1a 1434866_PM_x_at: 1.54
  FC Cpt1a 1438156_PM_x_at: 1.52
  FC Cul4a 1451971_PM_at: 1.71
  FC Cycs /// Gm10053 1456071_PM_a_at: 1.64
  FC D030056L22Rik 1455384_PM_x_at: 1.60
  FC Dck 1439012_PM_a_at: 1.59
  FC Dck 1449176_PM_a_at: 1.89
  FC Dctn6 1416499_PM_a_at: 1.53
  FC Dennd4a 1435975_PM_at: 1.71
  FC Ell2 1450744_PM_at: 1.58
  FC Elmo1 1424523_PM_at: 1.52
  FC Gclm 1439050_PM_at: 1.99
  FC Gm6159 /// Hnrnpr 1437526_PM_x_at: 1.50
  FC Gsto1 1456036_PM_x_at: 1.51
  FC Hadhb 1437172_PM_x_at: 1.51
  FC Herpud2 1439424_PM_x_at: 1.62
  FC Higd1c /// Mettl7a1 /// Mettl7a2 1434150_PM_a_at: 2.40
  FC Higd1c /// Mettl7a2 1456510_PM_x_at: 1.61
  FC Homer1 1437363_PM_at: 1.60
  FC Itsn1 1435884_PM_at: 1.69
  FC Kctd3 1455816_PM_a_at: 1.51
  FC Kif22 1437716_PM_x_at: 1.68
  FC Klhl7 1428091_PM_at: 1.77
  FC LOC100047324 /// Sesn1 1438931_PM_s_at: 1.52
  FC Lmcd1 1424596_PM_s_at: 1.64
  FC Lnp 1453035_PM_at: 1.69
  FC Lrrtm2 1455489_PM_at: 1.50
  FC Mcm4 1436708_PM_x_at: 1.72
  FC Metap2 1434120_PM_a_at: 1.52
  FC Mettl7a1 1454858_PM_x_at: 1.63
  FC Mkrn1 1434853_PM_x_at: 1.62
  FC Myef2 1425350_PM_a_at: 1.59
  FC Myof 1427318_PM_s_at: 1.52
  FC Ncapd3 1454952_PM_s_at: 1.66
  FC Nfkb1 1427705_PM_a_at: 1.52
  FC Nqo1 (1423627_PM_at): 3.23
  FC Nudt12 1453139_PM_at: 2.17
  FC Otud5 1438985_PM_x_at: 1.51
  FC Pik3r1 1425514_PM_at: 1.62
  FC Pir (1429001_PM_at): 2.78
  FC Polh 1447837_PM_x_at: 1.64
  FC Prkaca 1447720_PM_x_at: 1.53
  FC Prkar1b 1440132_PM_s_at: 1.50
  FC Prpf40a 1429436_PM_at: 1.65
  FC Psmc6 1417770_PM_s_at: 1.77
  FC Psmd9 1447670_PM_at: 1.73
  FC Rab6 1447776_PM_x_at: 1.51
  FC Rad21 1455938_PM_x_at: 1.58
  FC Ranbp2 1422621_PM_at: 1.50
  FC Ranbp2 1445883_PM_at: 1.61
  FC Rbm39 1442745_PM_x_at: 1.54
  FC Rdx 1416179_PM_a_at: 1.53
  FC Rif1 1429490_PM_at: 1.66
  FC Rlim 1439403_PM_x_at: 1.51
  FC Sec24a 1433934_PM_at: 1.50
  FC Smc4 1427275_PM_at: 1.56
  FC Smc6 1460069_PM_at: 1.52
  FC Smpd4 1429530_PM_a_at: 2.04
  FC Sorbs1 1436737_PM_a_at: 1.71
  FC Sp4 1437508_PM_at: 1.67
  FC Srxn1 (1419942_PM_at): 1.82
  FC Srxn1 (1426875_PM_s_at): 1.94
  FC Srxn1 (1451680_PM_at): 1.68
  FC Suz12 1449661_PM_at: 1.56
  FC Svip 1429146_PM_at: 1.59
  FC Tceb1 1452593_PM_a_at: 1.50
  FC Terf1 1443527_PM_at: 1.71
  FC Thoc1 1420042_PM_at: 1.89
  FC Tmem41b 1428586_PM_at: 1.88
  FC Tmem64 1433735_PM_a_at: 1.70
  FC Tnks2 1447522_PM_s_at: 1.63
  FC Tspyl1 1415908_PM_at: 1.66
  FC Ttc14 1437878_PM_s_at: 1.53
  FC Txnl1 1435235_PM_at: 1.59
  FC Usp14 1437714_PM_x_at: 1.57
  FC Zfp800 1456790_PM_at: 1.83
  FC Zfx 1419565_PM_a_at: 1.50
[4]
  FC 4930427A07Rik 1455818_PM_at: −1.59
  FC Klra3 /// Klra9 1425436_PM_x_at: −2.05
  FC Klra8 1425417_PM_x_at: −2.10
  FC Rnf128 (1449036_PM_at): 1.54
  FC Serpinb6b 1422804_PM_at: −1.64
  FC Xpc 1422532_PM_at: 1.59
[5]
  FC 1445666_PM_at: 2.14
  FC Prdm2 1453068_PM_at: 1.70
